Read-outs that look alike come from different tables or passages of the source.
Key:
Assay type in all cases: cell-based
[1] = tested on: herpes simplex virus type 1 (KOS strain); test: One-step growth of virus, plaque assay with vero cells; conditions: 100 μg/ml, 24 hours; for inhibition at 100 µg/mL / log reduction at 100 µg/mL: Human alphaherpesvirus 1, Vero, 24 h; for inhibition at 100 µg/mL: read-out: Intracellular virus Control ratio %; for log reduction at 100 µg/mL: read-out: Intracellular virus Control ratio -logT/C
Protocol: Antiviral activity of Compound A and Compound B against one-step growth of herpes simplex virus type 1 (KOS strain) Cells grown in a monolayer, with a sample of a given compound diluted in a varying ratio added, were pretreated for 15 minutes. Then, the pretreated cells were infected with the herpes simplex virus type 1 (KOS strain) at an infecting ratio of 0.25 and left standing for 24 hours. At the end of the standing, the intracellular and extracellular amounts of virus were determined by the plaque assay with vero cells.

[2] = tested on: herpes simplex virus type 1 (HF strain); test: Control of CPE (cytopathic effect) manifestation in vero cells; set-up: key to Cytopathic effect [CPE] (3days) Average / Cytopathic effect [CPE] (5days) Average / Cytopathic effect [CPE] (6days) Average: CPE score: 0 none, 0.5 minute spots, 1 = 25%, 2 = 50%, 3 = ≥75% cells; key to Cytopathic effect [CPE] (3days) △CPE / Cytopathic effect [CPE] (5days) △CPE / Cytopathic effect [CPE] (3days) ΔCPE / Cytopathic effect [CPE] (6days) ΔCPE: ΔCPE = difference of average CPE score (0–3 scale) from control; conditions: 100 μg/ml
Protocol: In vitro antiviral activity of Compound A against herpes simplex virus type 1 (HF strain) Compound A was tested for antiviral effect by the following two methods.
(§1) Vero cells cultured and grown in a monolayer on microplates to test for cytopathic effect due to viral infection, with solutions of Compound A diluted to varying ratios and solutions of virus diluted to varying ratios added severally thereto in a volume of 0.1 ml, were cultured under the conditions of 5% CO₂ and 37°C and were examined for CPE manifestation under a microscope. The observation was continued for five to six days.
(§2) The degree of CPE brought about by viral infection was rated on the five-point scale, wherein 3 stands for CPE observed on not less than 75% of cultured cells, 2 for CPE observed on 50% of cultured cells, 1 for CPE observed on 25% of cultured cells, 0.5 for occurrence of one to two extremely minute DPE spots, and 0 for perfect absence of recognizable CPE. The CPE scores obtained at the four holes in each microplate were averaged and the difference of the average from the average obtained in the control (omitting the treatment with a chemical) was reported as ΔCPE.
In vitro antiviral effect of Compound A against herpes simplex virus type 1 (HF strain) The test was carried out by following the procedure of Example 3.

[3] = tested on: herpes simplex virus type 1 (KOS strain); test: as above; conditions: 100 μg/ml, HSV-1 (KOS), Example 7
Protocol: as §1, §2
(§3) Antiviral activity of Compound A and Compound B against herpes simplex virus type 1 (KOS strain) The test was carried out by following the procedure of Example 3.

[4] = tested on: herpes simplex virus type 2 (169 strain); test: 50% Tissue culture infective dose (TCID50), Read-Munch method, negative logarithm of virus dilution; set-up: key to Cytopathic effect [CPE] (5days) TCID50 / Cytopathic effect [CPE] (3days) TCID50 / Cytopathic effect [CPE] (6days) TCID50: negative log of maximum virus dilution infecting 50% of tissues; conditions: HSV-2 (169); for log reduction at 100 µg/mL: difference from control
Protocol: (§4) The amount of virus infecting 50% of tissues (TCID₅₀) was determined by the Read-Munch method and expressed in negative logarithm of the maximum radio of dilution of virus. The difference of the amount thus determined from the amount found in the control (omitting the treatment with a chemical) was reported as ΔTCID₅₀. A sample whose ΔCPE's found on the last day of observation and on each of the days spent for the observation exceeded 1.0 was evaluated as effective.
In vitro antiviral activity of Compound A against herpes simplex virus type 2 (169 strain) The test was carried out by following the procedure of Example 3.

[5] = tested on: herpes simplex virus type 1 (KOS strain); test: as above; set-up: key to Cytopathic effect [CPE] (5days) TCID50 / Cytopathic effect [CPE] (3days) TCID50: TCID50 as negative log of maximum virus dilution ratio
Protocol: as §4, §3

[6] = HSV-1 (HF strain), Example 5, difference from control
[7] = HSV-1 (HF), Example 3, difference from control
[8] = 100 μg/ml, HSV-1 (KOS), Example 7

Compound: Nc1nc2c(ncn2COCCO)c(=O)[nH]1 [ACV, acyclovir, reference compound]
- Intracellular virus Average [1]: 8.50×10^2 /dish
- inhibition at 100 µg/mL ([1]; extracellular virus): > 99.9%
- log reduction at 100 µg/mL ([1]; extracellular virus): 5.78
- inhibition at 100 µg/mL [1]: > 99.9%
- log reduction at 100 µg/mL [1]: 5.68
- Cytopathic effect [CPE] (3days) Average ([2]; HSV-1 (HF strain), Example 5): 0.875
- Cytopathic effect [CPE] (6days) Average ([2]; HSV-1 (HF strain), Example 5): 1.0
- Cytopathic effect [CPE] (3days) ΔCPE [2, 6]: 1.875
- Cytopathic effect [CPE] (6days) ΔCPE [2, 6]: 2.0
- Cytopathic effect [CPE] (3days) Average ([2]; HSV-1 (HF), Example 3): 0
- Cytopathic effect [CPE] (5days) Average ([2]; HSV-1 (HF), Example 3): 0
- Cytopathic effect [CPE] (3days) △CPE [2, 7]: 1.5
- Cytopathic effect [CPE] (5days) △CPE [2, 7]: 1.75
- Cytopathic effect [CPE] (3days) Average [3]: 0
- Cytopathic effect [CPE] (5days) Average [3]: 0
- Cytopathic effect [CPE] (3days) △CPE ([3]; difference from control): 2.0
- Cytopathic effect [CPE] (5days) △CPE ([3]; difference from control): 3.0
- Cytopathic effect [CPE] (3days) TCID50 ([4]; 100 μg/ml, Example 4): 3.5
- Cytopathic effect [CPE] (5days) TCID50 ([4]; 100 μg/ml, Example 4): 3.5
- Cytopathic effect [CPE] (3days) TCID50 ([4]; 100 μg/ml, Example 6): < 3.5
- Cytopathic effect [CPE] (6days) TCID50 ([4]; 100 μg/ml, Example 6): 3.5
- log reduction at 100 µg/mL ([4]; Human alphaherpesvirus 2, 72 h, read-out: Cytopathic effect [CPE] (3days) △TCID50, 100 μg/ml, Example 4): 3
- log reduction at 100 µg/mL ([4]; Human alphaherpesvirus 2, 72 h, read-out: Cytopathic effect [CPE] (3days) △TCID50, 100 μg/ml, Example 6): > 3.2
- log reduction at 100 µg/mL ([4]; Human alphaherpesvirus 2, 120 h, read-out: Cytopathic effect [CPE] (5days) △TCID50, 100 μg/ml, Example 4): 3
- log reduction at 100 µg/mL ([4]; Human alphaherpesvirus 2, 144 h, read-out: Cytopathic effect [CPE] (6days) △TCID50, 100 μg/ml, Example 6): 3.2
- Cytopathic effect [CPE] (3days) TCID50 [5, 8]: 3.5
- Cytopathic effect [CPE] (5days) TCID50 [5, 8]: 3.5
- log reduction at 100 µg/mL ([5]; Human alphaherpesvirus 1, 72 h, read-out: Cytopathic effect [CPE] (3days) △TCID50): 2
- log reduction at 100 µg/mL ([5]; Human alphaherpesvirus 1, 120 h, read-out: Cytopathic effect [CPE] (5days) △TCID50): 2.5
